# Test results taken from patent US9643930B2, “Substituted indazole derivatives as in vitro MAO-B inhibitors” (“NTZ LAB” LTD., priority 2013, dated 2017).
# Molecular target: T1, rat MAO-A (Rattus norvegicus, UniProt P21396)
# T1 construct: from tissue; host or cells: rat liver mitochondria (male Sprague-Dawley rats)
# T1 sequence (P21396 1-526): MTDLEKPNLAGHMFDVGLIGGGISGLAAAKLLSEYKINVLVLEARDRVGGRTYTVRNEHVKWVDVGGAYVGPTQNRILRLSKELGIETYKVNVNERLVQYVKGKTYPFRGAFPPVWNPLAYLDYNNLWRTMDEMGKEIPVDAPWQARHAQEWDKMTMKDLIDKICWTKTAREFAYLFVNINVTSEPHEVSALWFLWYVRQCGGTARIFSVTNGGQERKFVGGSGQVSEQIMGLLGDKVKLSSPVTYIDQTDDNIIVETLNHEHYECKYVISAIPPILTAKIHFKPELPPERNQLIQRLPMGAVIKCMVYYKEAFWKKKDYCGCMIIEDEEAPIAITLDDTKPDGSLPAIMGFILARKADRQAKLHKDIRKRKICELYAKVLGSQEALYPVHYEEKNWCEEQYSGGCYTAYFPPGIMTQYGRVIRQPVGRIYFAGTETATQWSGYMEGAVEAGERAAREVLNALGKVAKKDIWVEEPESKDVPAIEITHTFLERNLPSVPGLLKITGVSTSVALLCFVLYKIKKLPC
# Experiment: Rat MAO-A assay (Amplex Red fluorescence, rat liver mitochondria pre-treated with deprenyl)
# Format: biochemical
# Settings: not given
row,Structure (SMILES),IC50 [nM]
1,"Clc1cc(/N=C/c2ccc3[nH]ncc3c2)cnc1Cl [Example 25, (E)-N-((1H-indazol-5-yl)methylene)-5,6-dichloropyridin-3-amine]",> 10000
2,"Fc1ccc(/N=C/c2ccc3[nH]ncc3c2)cc1Cl [Example 24, (E)-N-((1H-indazol-5-yl)methylene)-3-chloro-4-fluoroaniline]",> 10000
3,"Fc1cc(/N=C/c2ccc3[nH]ncc3c2)ccc1Cl [Example 23, (E)-N-((1H-indazol-5-yl)methylene)-4-chloro-3-fluoroaniline]",> 10000

# Same assay, conditions: rat liver mitochondria, substrate p-tyramine; read-out: rat MAO-A (rat liver mitochondria) IC50
row,Structure (SMILES),IC50 [nM]
1,"O=C(Nc1ccc(F)c(Cl)c1)c1ccc2[nH]ncc2c1 [Example 9, N-(3-chloro-4-fluorophenyl)-1H-indazole-5-carboxamide]",> 10000
2,"Cn1cc2cc(C(=O)Nc3ccc(F)c(F)c3)ccc2n1 [Example 20, N-(3,4-difluorophenyl)-2-methyl-2H-indazole-5-carboxamide]",1880 ± 93
3,"O=C(Nc1ccc(Cl)c(F)c1)c1ccc2[nH]ncc2c1 [Example 10, N-(4-chloro-3-fluorophenyl)-1H-indazole-5-carboxamide]",> 10000
4,"Cn1cc2cc(C(=O)Nc3ccc(F)c(Cl)c3)ccc2n1 [Example 18, N-(3-chloro-4-fluorophenyl)-2-methyl-2H-indazole-5-carboxamide]",1690 ± 143
5,"O=C(Nc1ccc(F)c(F)c1)c1ccc2[nH]ncc2c1 [Example 11, N-(3,4-difluorophenyl)-1H-indazole-5-carboxamide]",> 10000
6,"Cn1ncc2cc(C(=O)Nc3ccc(F)c(F)c3)ccc21 [Example 19, N-(3,4-difluorophenyl)-1-methyl-1H-indazole-5-carboxamide]",> 10000

# Same assay, conditions: read-out: rat MAO-A (rat liver mitochondria) % inhibition at 10 μM; at 10 μM, rat liver mitochondria
row,Structure (SMILES),inhibition at 10 µM [%]
1,"O=C(Nc1ccc(F)c(Cl)c1)c1ccc2[nH]ncc2c1 [Example 9, N-(3-chloro-4-fluorophenyl)-1H-indazole-5-carboxamide]",17
2,"Cn1cc2cc(C(=O)Nc3ccc(F)c(F)c3)ccc2n1 [Example 20, N-(3,4-difluorophenyl)-2-methyl-2H-indazole-5-carboxamide]",83
3,"O=C(Nc1ccc(Cl)c(F)c1)c1ccc2[nH]ncc2c1 [Example 10, N-(4-chloro-3-fluorophenyl)-1H-indazole-5-carboxamide]",30
4,"Clc1cc(/N=C/c2ccc3[nH]ncc3c2)cnc1Cl [Example 25, (E)-N-((1H-indazol-5-yl)methylene)-5,6-dichloropyridin-3-amine]",45
5,"Cn1cc2cc(C(=O)Nc3ccc(F)c(Cl)c3)ccc2n1 [Example 18, N-(3-chloro-4-fluorophenyl)-2-methyl-2H-indazole-5-carboxamide]",90
6,"O=C(Nc1ccc(F)c(F)c1)c1ccc2[nH]ncc2c1 [Example 11, N-(3,4-difluorophenyl)-1H-indazole-5-carboxamide]",13
7,"Cn1ncc2cc(C(=O)Nc3ccc(F)c(F)c3)ccc21 [Example 19, N-(3,4-difluorophenyl)-1-methyl-1H-indazole-5-carboxamide]",18
8,"Fc1ccc(/N=C/c2ccc3[nH]ncc3c2)cc1Cl [Example 24, (E)-N-((1H-indazol-5-yl)methylene)-3-chloro-4-fluoroaniline]",35
9,"Fc1cc(/N=C/c2ccc3[nH]ncc3c2)ccc1Cl [Example 23, (E)-N-((1H-indazol-5-yl)methylene)-4-chloro-3-fluoroaniline]",27

# Molecular target: T2, rat MAO-B (Rattus norvegicus, UniProt P19643)
# T2 construct: from tissue; host or cells: rat liver mitochondria (male Sprague-Dawley rats)
# T2 sequence (P19643 1-520): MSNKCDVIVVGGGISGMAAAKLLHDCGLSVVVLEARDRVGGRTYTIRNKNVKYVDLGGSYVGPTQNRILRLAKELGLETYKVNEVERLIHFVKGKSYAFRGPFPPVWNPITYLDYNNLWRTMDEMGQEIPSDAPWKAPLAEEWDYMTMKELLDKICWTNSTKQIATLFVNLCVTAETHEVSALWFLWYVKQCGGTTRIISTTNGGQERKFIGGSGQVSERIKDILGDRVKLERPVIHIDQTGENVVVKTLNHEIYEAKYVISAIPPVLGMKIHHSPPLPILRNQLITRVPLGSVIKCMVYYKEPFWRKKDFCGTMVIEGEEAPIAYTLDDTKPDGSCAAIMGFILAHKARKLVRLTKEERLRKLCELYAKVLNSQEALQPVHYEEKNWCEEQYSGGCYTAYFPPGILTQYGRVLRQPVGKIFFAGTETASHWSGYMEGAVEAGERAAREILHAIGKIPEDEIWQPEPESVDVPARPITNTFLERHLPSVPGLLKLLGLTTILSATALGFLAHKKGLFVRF
# Experiment: Rat MAO-B assay (Amplex Red fluorescence, rat liver mitochondria pre-treated with clorgyline 30 nM)
# Format: biochemical
# Settings: not given
row,Structure (SMILES),IC50 [nM]
1,"Clc1cc(/N=C/c2ccc3[nH]ncc3c2)cnc1Cl [Example 25, (E)-N-((1H-indazol-5-yl)methylene)-5,6-dichloropyridin-3-amine]",1.48 ± 0.07
2,"Fc1ccc(/N=C/c2ccc3[nH]ncc3c2)cc1Cl [Example 24, (E)-N-((1H-indazol-5-yl)methylene)-3-chloro-4-fluoroaniline]",6.08 ± 0.52
3,"Fc1cc(/N=C/c2ccc3[nH]ncc3c2)ccc1Cl [Example 23, (E)-N-((1H-indazol-5-yl)methylene)-4-chloro-3-fluoroaniline]",25.2 ± 0.11

# Same assay, conditions: rat liver mitochondria pre-treated with clorgyline 30 nM; read-out: rat MAO-B (rat liver mitochondria) IC50
row,Structure (SMILES),IC50 [nM]
1,"Cn1cc2cc(C(=O)Nc3ccc(F)c(F)c3)ccc2n1 [Example 20, N-(3,4-difluorophenyl)-2-methyl-2H-indazole-5-carboxamide]",221 ± 21
2,"O=C(Nc1ccc(Cl)c(F)c1)c1ccc2[nH]ncc2c1 [Example 10, N-(4-chloro-3-fluorophenyl)-1H-indazole-5-carboxamide]",2.61 ± 0.68
3,"Cn1cc2cc(C(=O)Nc3ccc(F)c(Cl)c3)ccc2n1 [Example 18, N-(3-chloro-4-fluorophenyl)-2-methyl-2H-indazole-5-carboxamide]",20.3 ± 3
4,"O=C(Nc1ccc(F)c(F)c1)c1ccc2[nH]ncc2c1 [Example 11, N-(3,4-difluorophenyl)-1H-indazole-5-carboxamide]",8.89 ± 0.05
5,"Cn1ncc2cc(C(=O)Nc3ccc(F)c(F)c3)ccc21 [Example 19, N-(3,4-difluorophenyl)-1-methyl-1H-indazole-5-carboxamide]",5.65 ± 0.48

# Molecular target: T3, human MAO-A (Homo sapiens, UniProt P21397)
# T3 sequence (P21397 1-527): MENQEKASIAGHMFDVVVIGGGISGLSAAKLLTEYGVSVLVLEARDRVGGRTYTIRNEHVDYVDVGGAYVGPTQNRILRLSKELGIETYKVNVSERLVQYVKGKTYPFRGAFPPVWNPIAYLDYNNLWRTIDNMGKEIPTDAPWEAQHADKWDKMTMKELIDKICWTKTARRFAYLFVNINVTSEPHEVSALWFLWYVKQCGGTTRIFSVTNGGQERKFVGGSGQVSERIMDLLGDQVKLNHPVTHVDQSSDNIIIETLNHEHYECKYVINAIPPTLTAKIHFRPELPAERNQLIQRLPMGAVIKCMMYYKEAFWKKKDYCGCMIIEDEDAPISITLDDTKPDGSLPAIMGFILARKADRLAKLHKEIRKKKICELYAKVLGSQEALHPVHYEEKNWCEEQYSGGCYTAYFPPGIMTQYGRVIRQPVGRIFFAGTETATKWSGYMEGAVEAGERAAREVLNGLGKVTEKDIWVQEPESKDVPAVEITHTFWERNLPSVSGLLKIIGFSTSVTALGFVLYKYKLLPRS
# Experiment: Human MAO-A assay (recombinant enzyme, Amplex Red fluorescence)
# Settings: not given
row,Structure (SMILES),IC50 [nM]
1,"O=C(Nc1ccc(F)c(Cl)c1)c1ccc2[nH]ncc2c1 [Example 9, N-(3-chloro-4-fluorophenyl)-1H-indazole-5-carboxamide]",> 10000
2,"O=C(Nc1ccc(Cl)c(F)c1)c1ccc2[nH]ncc2c1 [Example 10, N-(4-chloro-3-fluorophenyl)-1H-indazole-5-carboxamide]",< 10000
3,"Clc1cc(/N=C/c2ccc3[nH]ncc3c2)cnc1Cl [Example 25, (E)-N-((1H-indazol-5-yl)methylene)-5,6-dichloropyridin-3-amine]",< 10000
4,"O=C(Nc1ccc(F)c(F)c1)c1ccc2[nH]ncc2c1 [Example 11, N-(3,4-difluorophenyl)-1H-indazole-5-carboxamide]",> 10000
5,"Cn1ncc2cc(C(=O)Nc3ccc(F)c(F)c3)ccc21 [Example 19, N-(3,4-difluorophenyl)-1-methyl-1H-indazole-5-carboxamide]",> 10000
6,"Fc1ccc(/N=C/c2ccc3[nH]ncc3c2)cc1Cl [Example 24, (E)-N-((1H-indazol-5-yl)methylene)-3-chloro-4-fluoroaniline]",< 10000
7,"Fc1cc(/N=C/c2ccc3[nH]ncc3c2)ccc1Cl [Example 23, (E)-N-((1H-indazol-5-yl)methylene)-4-chloro-3-fluoroaniline]",> 10000

# Same assay, conditions: read-out: human MAO-A % inhibition at 10 μM
row,Structure (SMILES),inhibition at 10 µM [%]
1,"O=C(Nc1ccc(F)c(Cl)c1)c1ccc2[nH]ncc2c1 [Example 9, N-(3-chloro-4-fluorophenyl)-1H-indazole-5-carboxamide]",40
2,"O=C(Nc1ccc(Cl)c(F)c1)c1ccc2[nH]ncc2c1 [Example 10, N-(4-chloro-3-fluorophenyl)-1H-indazole-5-carboxamide]",55
3,"Clc1cc(/N=C/c2ccc3[nH]ncc3c2)cnc1Cl [Example 25, (E)-N-((1H-indazol-5-yl)methylene)-5,6-dichloropyridin-3-amine]",67
4,"Cn1cc2cc(C(=O)Nc3ccc(F)c(Cl)c3)ccc2n1 [Example 18, N-(3-chloro-4-fluorophenyl)-2-methyl-2H-indazole-5-carboxamide]",95
5,"O=C(Nc1ccc(F)c(F)c1)c1ccc2[nH]ncc2c1 [Example 11, N-(3,4-difluorophenyl)-1H-indazole-5-carboxamide]",36
6,"Cn1ncc2cc(C(=O)Nc3ccc(F)c(F)c3)ccc21 [Example 19, N-(3,4-difluorophenyl)-1-methyl-1H-indazole-5-carboxamide]",46
7,"Fc1ccc(/N=C/c2ccc3[nH]ncc3c2)cc1Cl [Example 24, (E)-N-((1H-indazol-5-yl)methylene)-3-chloro-4-fluoroaniline]",54
8,"Fc1cc(/N=C/c2ccc3[nH]ncc3c2)ccc1Cl [Example 23, (E)-N-((1H-indazol-5-yl)methylene)-4-chloro-3-fluoroaniline]",44

# Same assay, conditions: read-out: human MAO-A IC50; recombinant human enzyme, p-tyramine 150 μM
row,Structure (SMILES),IC50 [nM]
1,"Cn1cc2cc(C(=O)Nc3ccc(F)c(F)c3)ccc2n1 [Example 20, N-(3,4-difluorophenyl)-2-methyl-2H-indazole-5-carboxamide]",764 ± 40
2,"Cn1cc2cc(C(=O)Nc3ccc(F)c(Cl)c3)ccc2n1 [Example 18, N-(3-chloro-4-fluorophenyl)-2-methyl-2H-indazole-5-carboxamide]",562 ± 62

# Molecular target: T4, human MAO-B (Homo sapiens, UniProt P27338)
# T4 sequence (P27338 1-520): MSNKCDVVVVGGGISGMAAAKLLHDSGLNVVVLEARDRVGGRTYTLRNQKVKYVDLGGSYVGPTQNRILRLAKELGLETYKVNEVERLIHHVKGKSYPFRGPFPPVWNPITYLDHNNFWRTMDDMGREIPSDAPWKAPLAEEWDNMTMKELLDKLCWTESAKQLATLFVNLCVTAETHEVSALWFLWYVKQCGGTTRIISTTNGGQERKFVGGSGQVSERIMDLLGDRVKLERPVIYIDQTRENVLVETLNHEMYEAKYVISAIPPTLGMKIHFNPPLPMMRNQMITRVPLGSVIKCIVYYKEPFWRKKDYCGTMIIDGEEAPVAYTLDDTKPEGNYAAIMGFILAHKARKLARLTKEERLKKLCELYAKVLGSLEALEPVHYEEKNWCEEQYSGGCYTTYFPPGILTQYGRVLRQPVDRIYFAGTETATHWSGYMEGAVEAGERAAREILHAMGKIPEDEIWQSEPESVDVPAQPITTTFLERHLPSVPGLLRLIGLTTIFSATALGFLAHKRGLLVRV
# Experiment: Human MAO-B assay (recombinant enzyme, Amplex Red fluorescence)
# Format: biochemical
# Set-up: purchased Sigma-Aldrich M7441; host or cells: baculovirus-infected insect cells (microsomal product)
# Settings: p-tyramine 150 μM
row,Structure (SMILES),IC50 [nM]
1,"Cn1cc2cc(C(=O)Nc3ccc(F)c(F)c3)ccc2n1 [Example 20, N-(3,4-difluorophenyl)-2-methyl-2H-indazole-5-carboxamide]",38.4 ± 1.8
2,"O=C(Nc1ccc(Cl)c(F)c1)c1ccc2[nH]ncc2c1 [Example 10, N-(4-chloro-3-fluorophenyl)-1H-indazole-5-carboxamide]",0.668 ± 0.053
3,"Clc1cc(/N=C/c2ccc3[nH]ncc3c2)cnc1Cl [Example 25, (E)-N-((1H-indazol-5-yl)methylene)-5,6-dichloropyridin-3-amine]",0.474 ± 0.02
4,"Cn1cc2cc(C(=O)Nc3ccc(F)c(Cl)c3)ccc2n1 [Example 18, N-(3-chloro-4-fluorophenyl)-2-methyl-2H-indazole-5-carboxamide]",8.08 ± 1.05
5,"O=C(Nc1ccc(F)c(F)c1)c1ccc2[nH]ncc2c1 [Example 11, N-(3,4-difluorophenyl)-1H-indazole-5-carboxamide]",1.59 ± 0.16
6,"Cn1ncc2cc(C(=O)Nc3ccc(F)c(F)c3)ccc21 [Example 19, N-(3,4-difluorophenyl)-1-methyl-1H-indazole-5-carboxamide]",1.52 ± 0.18
7,"Fc1ccc(/N=C/c2ccc3[nH]ncc3c2)cc1Cl [Example 24, (E)-N-((1H-indazol-5-yl)methylene)-3-chloro-4-fluoroaniline]",2.1 ± 0.3
8,"Fc1cc(/N=C/c2ccc3[nH]ncc3c2)ccc1Cl [Example 23, (E)-N-((1H-indazol-5-yl)methylene)-4-chloro-3-fluoroaniline]",1.91 ± 0.27
